From article PMC11062922 (Nature Chemical Biology, 2023)

Assays:
GRK6 = target: T1, GRK6 (Homo sapiens, UniProt P43250); assay: Kinobeads two-dose competition binding: GRK6; details: target GRK6
T1 construct: endogenous in cells

MAPK14 = target: T2, MAPK14 (Homo sapiens, UniProt Q16539); assay: Kinobeads competition binding: MAPK14; details: target MAPK14
T2 construct: endogenous in cells

DDR1 = assay: Kinobeads competition binding: DDR1; set-up: species or system human; details: target DDR1
EPHA2 = target: T3, EPHA2 (Homo sapiens, UniProt P29317); assay: Kinobeads competition binding: EPHA2; details: target EPHA2
T3 construct: endogenous in cells
Source text: Supplement 41589_2023_1459_MOESM4_ESM.xlsx, sheet "CATDS matrix" | column: EPHA2

EPHB3 = target: T4, EPHB3 (Homo sapiens, UniProt P54753); assay: Kinobeads competition binding: EPHB3; details: target EPHB3
T4 construct: endogenous in cells
T4 sequence (P54753 34-998): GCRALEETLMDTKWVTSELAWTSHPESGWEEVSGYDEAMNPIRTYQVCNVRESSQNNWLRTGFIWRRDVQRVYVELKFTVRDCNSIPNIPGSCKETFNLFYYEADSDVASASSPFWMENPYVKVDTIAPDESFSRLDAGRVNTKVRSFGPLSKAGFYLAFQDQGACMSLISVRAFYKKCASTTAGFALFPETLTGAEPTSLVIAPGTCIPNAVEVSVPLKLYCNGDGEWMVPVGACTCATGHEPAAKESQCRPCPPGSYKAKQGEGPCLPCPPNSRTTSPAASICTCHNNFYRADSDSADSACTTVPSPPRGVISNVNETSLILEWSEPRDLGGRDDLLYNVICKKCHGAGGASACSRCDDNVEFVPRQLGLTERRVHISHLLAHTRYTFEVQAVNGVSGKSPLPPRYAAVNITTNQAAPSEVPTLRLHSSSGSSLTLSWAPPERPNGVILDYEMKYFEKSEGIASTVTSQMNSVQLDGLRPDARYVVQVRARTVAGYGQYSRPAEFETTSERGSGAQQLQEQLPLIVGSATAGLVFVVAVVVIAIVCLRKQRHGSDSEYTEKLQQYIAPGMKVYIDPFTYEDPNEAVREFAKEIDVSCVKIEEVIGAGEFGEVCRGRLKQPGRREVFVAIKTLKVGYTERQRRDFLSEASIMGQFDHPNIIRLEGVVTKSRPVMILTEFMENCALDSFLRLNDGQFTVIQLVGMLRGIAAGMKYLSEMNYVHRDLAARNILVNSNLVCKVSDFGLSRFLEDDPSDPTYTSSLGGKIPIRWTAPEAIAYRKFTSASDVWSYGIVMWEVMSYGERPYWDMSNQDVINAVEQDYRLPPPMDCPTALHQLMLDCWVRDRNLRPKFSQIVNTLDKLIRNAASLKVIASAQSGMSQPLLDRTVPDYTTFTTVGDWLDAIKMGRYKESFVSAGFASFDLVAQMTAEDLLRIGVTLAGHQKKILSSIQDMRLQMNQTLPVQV
Source text: Supplement 41589_2023_1459_MOESM4_ESM.xlsx, sheet "CATDS matrix" | column: EPHB3

GALK1 = assay: Kinobeads competition binding: GALK1; set-up: species or system human; details: target GALK1
AGK = assay: Kinobeads competition binding: AGK; set-up: species or system human; details: target AGK
NLK = assay: Kinobeads competition binding: NLK; set-up: species or system human; details: target NLK;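 also: selectivity score: engagement of this protein divided by summed engagement of all targets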
BUB1 = target: T5, BUB1 (Homo sapiens, UniProt O43683); assay: Kinobeads competition binding: BUB1; details: target BUB1
T5 construct: endogenous in cells

MAP2K6 = assay: Kinobeads competition binding: MAP2K6; set-up: species or system human; details: target MAP2K6
MAP4K5 = assay: Kinobeads competition binding: MAP4K5; set-up: species or system human; details: target MAP4K5
GSK3A = target: T6, GSK3A (Homo sapiens, UniProt P49840); assay: Kinobeads competition binding: GSK3A; details: target GSK3A
T6 construct: endogenous in cells

EPHB4 = target: T7, EPHB4 (Homo sapiens, UniProt P54760); assay: Kinobeads competition binding: EPHB4; details: target EPHB4
T7 construct: endogenous in cells
T7 sequence (P54760 16-987): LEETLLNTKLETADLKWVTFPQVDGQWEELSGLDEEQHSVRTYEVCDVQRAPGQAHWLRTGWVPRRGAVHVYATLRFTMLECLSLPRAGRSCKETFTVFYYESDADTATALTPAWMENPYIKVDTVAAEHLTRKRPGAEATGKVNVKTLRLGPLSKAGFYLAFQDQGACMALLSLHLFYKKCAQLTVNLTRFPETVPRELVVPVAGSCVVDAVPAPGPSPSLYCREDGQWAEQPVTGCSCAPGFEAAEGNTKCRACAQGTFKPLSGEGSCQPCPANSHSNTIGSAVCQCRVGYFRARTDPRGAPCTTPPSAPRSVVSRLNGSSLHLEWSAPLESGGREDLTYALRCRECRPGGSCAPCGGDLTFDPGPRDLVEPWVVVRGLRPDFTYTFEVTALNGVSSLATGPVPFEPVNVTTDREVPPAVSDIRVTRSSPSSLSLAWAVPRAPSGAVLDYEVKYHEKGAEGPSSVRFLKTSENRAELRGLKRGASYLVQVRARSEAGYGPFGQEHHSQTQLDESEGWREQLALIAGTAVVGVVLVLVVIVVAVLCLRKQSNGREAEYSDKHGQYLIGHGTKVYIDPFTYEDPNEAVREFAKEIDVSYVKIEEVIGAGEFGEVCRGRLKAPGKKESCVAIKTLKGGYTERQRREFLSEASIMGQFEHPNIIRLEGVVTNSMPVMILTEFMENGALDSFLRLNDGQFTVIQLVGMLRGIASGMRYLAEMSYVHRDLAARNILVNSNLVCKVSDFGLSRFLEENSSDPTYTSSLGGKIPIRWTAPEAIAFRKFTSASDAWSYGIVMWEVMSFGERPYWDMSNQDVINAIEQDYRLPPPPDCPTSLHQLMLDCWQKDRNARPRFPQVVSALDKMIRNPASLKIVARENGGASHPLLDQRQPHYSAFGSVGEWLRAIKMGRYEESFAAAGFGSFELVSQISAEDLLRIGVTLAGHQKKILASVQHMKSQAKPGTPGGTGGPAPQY

CIT = target: T8, CIT (Homo sapiens, UniProt O14578); assay: Kinobeads competition binding: CIT; details: target CIT
T8 construct: endogenous in cells
Source text: Supplement 41589_2023_1459_MOESM4_ESM.xlsx, sheet "CATDS matrix" | column: CIT

PI4KA = assay: Kinobeads competition binding: PI4KA; set-up: species or system human; details: target PI4KA
CDK2 = target: T9, CDK2 (Homo sapiens, UniProt P24941); assay: Kinobeads competition binding: CDK2; details: target CDK2
T9 construct: endogenous in cells

T6 sequence (P49840 whole entry): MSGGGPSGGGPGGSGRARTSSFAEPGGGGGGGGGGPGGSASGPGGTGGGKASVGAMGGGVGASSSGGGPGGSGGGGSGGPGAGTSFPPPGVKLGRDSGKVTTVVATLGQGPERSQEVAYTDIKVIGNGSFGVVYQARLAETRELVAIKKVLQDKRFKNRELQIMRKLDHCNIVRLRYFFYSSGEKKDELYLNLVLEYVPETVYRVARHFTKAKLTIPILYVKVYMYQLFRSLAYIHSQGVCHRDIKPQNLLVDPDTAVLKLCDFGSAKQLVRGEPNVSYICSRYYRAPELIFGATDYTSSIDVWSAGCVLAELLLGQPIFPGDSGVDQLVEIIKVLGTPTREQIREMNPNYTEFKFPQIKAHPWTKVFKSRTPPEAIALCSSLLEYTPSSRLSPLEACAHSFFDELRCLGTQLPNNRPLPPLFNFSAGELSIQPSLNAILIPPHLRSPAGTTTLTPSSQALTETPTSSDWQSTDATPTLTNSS
T5 sequence (O43683 whole entry): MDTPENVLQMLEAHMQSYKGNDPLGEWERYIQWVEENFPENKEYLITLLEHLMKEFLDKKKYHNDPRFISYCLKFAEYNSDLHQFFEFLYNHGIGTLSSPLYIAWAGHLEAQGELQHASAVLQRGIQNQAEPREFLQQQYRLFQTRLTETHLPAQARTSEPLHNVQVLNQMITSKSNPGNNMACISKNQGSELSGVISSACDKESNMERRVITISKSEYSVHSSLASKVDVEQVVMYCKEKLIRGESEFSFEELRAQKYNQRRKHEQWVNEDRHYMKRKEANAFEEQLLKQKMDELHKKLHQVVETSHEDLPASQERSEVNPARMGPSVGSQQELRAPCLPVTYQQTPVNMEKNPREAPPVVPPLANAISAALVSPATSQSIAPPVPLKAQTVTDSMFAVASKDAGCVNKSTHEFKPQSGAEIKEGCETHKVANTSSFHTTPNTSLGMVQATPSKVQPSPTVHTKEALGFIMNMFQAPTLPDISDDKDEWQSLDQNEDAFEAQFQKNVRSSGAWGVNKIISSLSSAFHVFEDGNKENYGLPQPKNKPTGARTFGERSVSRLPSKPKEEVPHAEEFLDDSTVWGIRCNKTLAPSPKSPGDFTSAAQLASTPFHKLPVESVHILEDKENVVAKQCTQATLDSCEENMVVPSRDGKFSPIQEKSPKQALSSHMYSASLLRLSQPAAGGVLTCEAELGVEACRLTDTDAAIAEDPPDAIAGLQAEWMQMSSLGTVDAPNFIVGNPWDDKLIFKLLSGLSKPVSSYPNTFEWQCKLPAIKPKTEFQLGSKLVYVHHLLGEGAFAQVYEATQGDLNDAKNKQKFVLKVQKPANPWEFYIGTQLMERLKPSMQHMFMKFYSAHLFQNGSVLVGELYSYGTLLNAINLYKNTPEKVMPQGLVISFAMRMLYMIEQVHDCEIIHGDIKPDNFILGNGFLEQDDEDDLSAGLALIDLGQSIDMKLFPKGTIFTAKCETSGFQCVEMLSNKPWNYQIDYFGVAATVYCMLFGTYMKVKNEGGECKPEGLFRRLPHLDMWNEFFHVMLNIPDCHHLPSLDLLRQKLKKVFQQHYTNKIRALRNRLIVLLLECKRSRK
T8 sequence (O14578 whole entry): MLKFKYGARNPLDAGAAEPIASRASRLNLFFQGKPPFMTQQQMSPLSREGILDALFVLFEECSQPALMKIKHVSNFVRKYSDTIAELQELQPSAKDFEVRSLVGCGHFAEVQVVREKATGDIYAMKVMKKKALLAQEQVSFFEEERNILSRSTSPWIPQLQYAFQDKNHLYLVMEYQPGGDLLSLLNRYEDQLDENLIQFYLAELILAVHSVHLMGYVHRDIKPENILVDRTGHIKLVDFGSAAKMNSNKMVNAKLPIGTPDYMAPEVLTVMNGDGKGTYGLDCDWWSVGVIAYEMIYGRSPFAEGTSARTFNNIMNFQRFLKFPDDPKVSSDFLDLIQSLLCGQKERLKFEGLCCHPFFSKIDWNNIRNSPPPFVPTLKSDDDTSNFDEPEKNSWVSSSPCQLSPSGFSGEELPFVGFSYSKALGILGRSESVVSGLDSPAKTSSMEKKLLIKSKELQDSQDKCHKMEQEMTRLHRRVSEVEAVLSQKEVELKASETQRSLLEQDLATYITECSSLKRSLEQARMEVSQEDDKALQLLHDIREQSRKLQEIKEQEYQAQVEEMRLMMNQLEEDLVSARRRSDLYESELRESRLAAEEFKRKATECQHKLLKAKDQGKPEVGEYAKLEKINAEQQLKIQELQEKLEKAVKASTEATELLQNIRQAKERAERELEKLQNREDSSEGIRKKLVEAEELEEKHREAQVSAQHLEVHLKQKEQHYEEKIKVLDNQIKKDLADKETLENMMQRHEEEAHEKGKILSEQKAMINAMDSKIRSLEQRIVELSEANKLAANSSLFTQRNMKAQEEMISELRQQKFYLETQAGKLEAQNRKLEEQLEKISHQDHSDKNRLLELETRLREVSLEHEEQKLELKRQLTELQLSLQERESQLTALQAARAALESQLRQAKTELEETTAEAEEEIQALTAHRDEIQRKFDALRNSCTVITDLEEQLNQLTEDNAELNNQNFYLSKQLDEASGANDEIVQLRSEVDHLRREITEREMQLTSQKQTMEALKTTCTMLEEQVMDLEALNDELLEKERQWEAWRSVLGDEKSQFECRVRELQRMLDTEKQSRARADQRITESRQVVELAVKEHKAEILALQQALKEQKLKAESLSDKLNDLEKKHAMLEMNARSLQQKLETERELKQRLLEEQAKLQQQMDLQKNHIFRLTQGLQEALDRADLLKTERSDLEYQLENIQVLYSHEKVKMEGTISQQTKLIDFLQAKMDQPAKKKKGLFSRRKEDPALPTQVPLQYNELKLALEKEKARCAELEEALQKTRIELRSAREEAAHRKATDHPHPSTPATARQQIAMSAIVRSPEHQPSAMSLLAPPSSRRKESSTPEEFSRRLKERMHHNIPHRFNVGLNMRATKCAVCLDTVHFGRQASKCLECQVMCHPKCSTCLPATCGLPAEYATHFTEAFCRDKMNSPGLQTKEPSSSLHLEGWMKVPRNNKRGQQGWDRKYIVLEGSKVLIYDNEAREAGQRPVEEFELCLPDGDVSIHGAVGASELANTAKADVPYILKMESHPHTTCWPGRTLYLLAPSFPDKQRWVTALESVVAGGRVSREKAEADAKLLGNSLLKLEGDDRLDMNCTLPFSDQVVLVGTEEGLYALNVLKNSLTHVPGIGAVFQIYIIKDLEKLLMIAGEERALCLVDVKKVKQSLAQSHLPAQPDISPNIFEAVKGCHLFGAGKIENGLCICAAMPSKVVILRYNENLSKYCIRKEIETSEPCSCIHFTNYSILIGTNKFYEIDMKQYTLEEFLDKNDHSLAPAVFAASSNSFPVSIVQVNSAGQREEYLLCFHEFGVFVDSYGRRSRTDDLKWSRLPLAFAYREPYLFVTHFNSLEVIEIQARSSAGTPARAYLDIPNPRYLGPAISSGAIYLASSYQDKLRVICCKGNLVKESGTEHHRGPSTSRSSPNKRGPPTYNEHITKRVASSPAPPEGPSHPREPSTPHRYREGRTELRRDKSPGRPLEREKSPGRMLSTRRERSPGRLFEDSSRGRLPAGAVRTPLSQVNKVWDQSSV
T2 sequence (Q16539 whole entry): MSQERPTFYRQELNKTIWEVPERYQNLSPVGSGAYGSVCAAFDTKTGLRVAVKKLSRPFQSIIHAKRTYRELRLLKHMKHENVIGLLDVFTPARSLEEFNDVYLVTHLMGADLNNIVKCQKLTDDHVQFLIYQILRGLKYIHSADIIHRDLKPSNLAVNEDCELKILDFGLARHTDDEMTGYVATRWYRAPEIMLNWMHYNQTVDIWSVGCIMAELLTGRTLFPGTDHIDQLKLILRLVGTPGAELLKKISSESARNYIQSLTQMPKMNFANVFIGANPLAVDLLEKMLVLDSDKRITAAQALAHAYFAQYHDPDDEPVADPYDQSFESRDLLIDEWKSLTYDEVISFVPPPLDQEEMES
T1 sequence (P43250 whole entry): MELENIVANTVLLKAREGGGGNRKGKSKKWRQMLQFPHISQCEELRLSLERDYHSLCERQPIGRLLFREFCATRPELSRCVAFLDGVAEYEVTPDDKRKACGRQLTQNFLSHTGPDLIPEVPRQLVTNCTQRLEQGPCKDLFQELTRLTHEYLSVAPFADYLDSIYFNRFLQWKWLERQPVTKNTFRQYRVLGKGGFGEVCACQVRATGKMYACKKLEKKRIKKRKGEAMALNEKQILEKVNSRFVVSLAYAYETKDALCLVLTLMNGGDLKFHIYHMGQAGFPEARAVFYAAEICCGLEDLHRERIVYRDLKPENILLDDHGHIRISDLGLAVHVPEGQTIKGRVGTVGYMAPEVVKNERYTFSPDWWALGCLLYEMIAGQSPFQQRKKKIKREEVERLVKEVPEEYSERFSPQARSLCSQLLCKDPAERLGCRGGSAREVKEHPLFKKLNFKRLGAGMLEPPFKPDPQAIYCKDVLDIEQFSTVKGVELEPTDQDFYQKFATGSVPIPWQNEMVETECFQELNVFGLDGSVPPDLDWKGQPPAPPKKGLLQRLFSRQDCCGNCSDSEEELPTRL

| Structure (SMILES) | CATDS (GRK6) | CATDS (MAPK14) | CATDS (DDR1) | CATDS (EPHA2) | CATDS (EPHB3) | CATDS (GALK1) | CATDS (AGK) | CATDS (NLK) | CATDS (BUB1) | CATDS (MAP2K6) | CATDS (MAP4K5) | CATDS (GSK3A) | CATDS (EPHB4) | CATDS (CIT) | CATDS (PI4KA) | CATDS (CDK2) |
| --- | --- | --- | --- | --- | --- | --- | --- | --- | --- | --- | --- | --- | --- | --- | --- | --- |
| CCc1cc2c(cc1N1CCC(N3CCOCC3)CC1)C(C)(C)c1[nH]c3cc(C#N)ccc3c1C2=O [Alectinib] | 0 | 0 | 0 | 0 | 0 | 0 | 0 | 0 | 0 | 0 | 0 | 0 | 0 | 0 | 0 | 0 |
| CCN1CCN(Cc2ccc(Nc3ncc(F)c(-c4cc(F)c5nc(C)n(C(C)C)c5c4)n3)nc2)CC1 [Abemaciclib] | 0 | 0 | 0 | 0 | 0 | 0 | 0 | 0 | 0 | 0 | 0 | 0.08929 | 0 | 0.02291 | 0 |  |
| Nc1ncnc2[nH]c(-c3ccccc3)nc12 [AH5015_KCGS] | 0 | 0 | 0 | 0 | 0 | 0 | 0 | 0 | 0 | 0 | 0 | 0.1015 | 0.03489 | 0 | 0 | 0 |
| N#CC1(c2ccc(NC(=O)c3cccnc3NCc3ccncc3)cc2)CCCC1 [Apatinib] | 0 | 0 | 0 | 0 | 0 | 0 | 0 | 0 | 0 | 0 | 0 | 0 | 0 | 0 | 0 | 0 |
| CN(C)C/C=C/C(=O)Nc1cc2c(Nc3ccc(F)c(Cl)c3)ncnc2cc1O[C@H]1CCOC1 [Afatinib] | 0 |  |  | 0 | 0 | 0 | 0 |  |  |  |  | 0 |  | 0 | 0 | 0 |
